Test results taken from US10899769B2, “Imidazopiperazinone inhibitors of transcription activating proteins” (Board of Regents, The University of Texas System, priority 2018, dated 2021).

Tests used:
[1] = target: GST-CBP(1081-1197) bromodomain (Homo sapiens (Human), UniProt Q92793); assay: CBP AlphaScreen Assay; conditions: binding to biotin-H4(1-21) Ac-K5/8/12/16
Description: (§1) Specific binding of the CBP or BRD4 bromodomain to the acetylated peptide derived from the H4 histone substrate (tetra acetylated H4(1-21) Ac-K5/8/12/16) was measured in absence or presence of inhibitors. The GST tagged bromodomains of CBP (1081-1197) and BRD4 (49-170) were obtained from BPS Bioscience and binding to the biotinylated H4(1-21) Ac-K5/8/12/16 (AnaSpec. 64989) was assessed via AlphaScreen technology (Perkin Elmer).
(§2) 5 nM GST-CBP(1081-1197) and 20 nM biotin-H4(1-21) Ac-K5/8/12/16 (AnaSpec. 64989) were incubated with varying concentrations of CBP inhibitors in 15 μL of buffer containing 50 mM HEPES 7.5, […], 1 mM TCEP, and 0.003% Tween-20. After 30 minutes incubation at room temperature, 15 μL of detection buffer (BPS Bio. 33006) containing 7 μg/mL of Glutathione AlphaLisa acceptor beads (Perkin Elmer AL109) and 14 μg/mL of Streptavidin donor beads (Perkin Elmer 676002) was then added to the previous mixture. The reaction was incubated for an additional 2 hours at room temperature, and the AlphaScreen signal was quantified using the Envision Multilabel plate reader. As negative control, GST-CBP(1081-1197) was incubated with the non-acetylated biotin-H4(1-21) peptide(AnaSpec. 62555) and in presence of 0.25% of final DMSO concentration.
(§3) the binding of 2.5 nM of BRD4(49-170) to 10 nM biotin-H4(1-21) Ac-K5/8/12/16 (AnaSpec. 64989) was assessed following the same procedure described for the CBP assay. The standard dose response curves were fitted by Genedata Screener software using the variable-slope model: Signal=Signalnegative control+(SignalDMSO control−Signalnegative control)/(1+(IC50/Dose)^Hill slope).
(§4) Only Signal and Dose in the equation were treated as know values.

BRD4(49-170) bromodomain = BRD4(49-170) bromodomain (Homo sapiens (Human), UniProt O60885); assay: BRD4 AlphaScreen Assay; conditions: binding to biotin-H4(1-21) Ac-K5/8/12/16
Description: as §1, §2, §3, §4

GST-CBP(1081-1197) bromodomain, sequence (Q92793 1081-1197): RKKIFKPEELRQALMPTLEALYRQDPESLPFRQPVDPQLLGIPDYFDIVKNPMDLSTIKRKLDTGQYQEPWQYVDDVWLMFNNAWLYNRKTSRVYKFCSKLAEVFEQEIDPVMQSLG

Compound | IC50 [1] [nM] | IC50 (BRD4(49-170) bromodomain) [nM]
COCCN1CCC(c2nc(-c3cccc4nc(-c5cnn(C)c5)c(C(F)F)cc34)c3n2C(C)C(=O)N(C)C3)CC1 (centres unmarked) [Example 82, 1-(3-(difluoromethyl)-2-(1-methyl-1H-pyrazol-4-yl)quinolin-5-yl)-3-(1-(2-methoxyethyl)piperidin-4-yl)-5,7-dimethyl-7,8-dihydroimidazo[1,5-a] pyrazin-6(5H)-one] | 227 | 12300
CC1C(=O)N(C)Cc2c(-c3cccc4nc(-c5cnn(C)c5)c(C(F)F)cc34)nc(C3CCS(=O)(=O)CC3)n21 (single isomer, unassigned) [Example 29a, 1-(3-(Difluoromethyl)-2-(1-methyl-1H-pyrazol-4-yl)quinolin-5-yl)-3-(1,1-dioxidotetrahydro-2H-thiopyran-4-yl)-5,7-dimethyl-7,8-dihydroimidazo[1,5-a]pyrazin-6(5H)-one] | 6500 | ≥ 25000
CC1C(=O)N(C)Cc2c(-c3cccc4nc(-c5cnn(C)c5)c(C(F)F)cc34)nc(C3(C)CCOCC3)n21 (single isomer, unassigned) [Example 32a, 1-(3-(Difluoromethyl)-2-(1-methyl-1H-pyrazol-4-yl)quinolin-5-yl)-5,7-dimethyl-3-(4-methyltetrahydro-2H-pyran-4-yl)-7,8-dihydroimidazo[1,5-a]pyrazin-6(5H)-one] | 490 | ≥ 25000
CC1C(=O)N(C)Cc2c(-c3c(F)ccc4nc(-c5cnn(C)c5)c(C(F)(F)F)cc34)nc(C3CCOCC3)n21 (centres unmarked) [Example 35, 1-(6-Fluoro-2-(1-methyl-1H-pyrazol-4-yl)-3-(trifluoromethyl)quinolin-5-yl)-5,7-dimethyl-3-(tetrahydro-2H-pyran-4-yl)-7,8-dihydroimidazo[1,5-a]pyrazin-6(5H)-one] | 1200 | 25000
Cc1nn(C)cc1-c1cc2ccc(F)c(-c3nc(C4CCOCC4)n4c3CN(C)C(=O)C4)c2cn1 [Example 97, 1-(3-(1,3-dimethyl-1H-pyrazol-4-yl)-7-fluoroisoquinolin-8-yl)-7-methyl-3-(tetrahydro-2H-pyran-4-yl)-7,8-dihydroimidazo[1,5-a] pyrazin-6(5H)-one] | 323 | 25000

Stronger by IC50 [1], values ahead:

IC50 [1] [nM] | IC50 (BRD4(49-170) bromodomain) [nM] | Compound
172 | 12000 | CC1C(=O)N(C)Cc2c(-c3cccc4nc(-c5cnn(C)c5)c(C(F)F)cc34)nc(C3CCNCC3)n21 (centres unmarked) [Example 75, 1-(3-(difluoromethyl)-2-(1-methyl-1H-pyrazol-4-yl)quinolin-5-yl)-5,7-dimethyl-3-(piperidin-4-yl)-7,8-dihydroimidazo[1,5-a] pyrazin-6(5H)-one]
19 | 4970 | Cn1cc(-c2cc3cccc(-c4nc(C5CC5)n5c4CN(CCF)C(=O)C5)c3cn2)cn1 [Example 7, 3-Cyclopropyl-7-(2-fluoroethyl)-1-(3-(1-methyl-1H-pyrazol-4-yl)isoquinolin-8-yl)-7,8-dihydroimidazo[1,5-a]pyrazin-6(5H)-one]
14 | 1620 | CC1C(=O)N(C)Cc2c(-c3ccc4c(c3)c(-c3cnn(C)c3)nn4C)nc(C3=CCOCC3)n21 (centres unmarked) [Example 41, 3-(3,6-Dihydro-2H-pyran-4-yl)-5,7-dimethyl-1-(1-methyl-3-(1-methyl-1H-pyrazol-4-yl)-1H-indazol-5-yl)-7,8-dihydroimidazo[1,5-a]pyrazin-6(5H)-one]
7 | 8810 | CN1Cc2c(N3CCCc4cc(-c5cnn(C)c5)c(C(F)F)cc43)nc(C3CC3)n2CC1=O [Example 1, 3-cyclopropyl-1-(7-(difluoromethyl)-6-(1-methyl-1H-pyrazol-4-yl)-3,4-dihydroquinolin-1(2H)-yl)-7-methyl-7,8-dihydroimidazo[1,5-a]pyrazin-6(5H)-one]
2 | 3030 | CC1C(=O)N(C)Cc2c(-c3cccc4cc(-c5nn[nH]n5)ncc34)nc(C3CC3)n21 (centres unmarked) [Example 17, 1-(3-(2H-Tetrazol-5-yl)isoquinolin-8-yl)-3-cyclopropyl-5,7-dimethyl-7,8-dihydroimidazo[1,5-a]pyrazin-6(5H)-one]
